Assay results: publication PMC8482815, “Targeting Host Glycolysis as a Strategy for Antimalarial Development” (Frontiers in Cellular and Infection Microbiology, 2021)
“And” between values parts separate entries of the source, which are not always exact repeats. Equal values may be shown once.

Tested on: human erythrocytes
Test: Untargeted metabolomics and 13C-glucose tracing of enolase inhibitor treated erythrocytes
Assay type: cell-based
Settings: 0.5h
Experimental: Freshly collected erythrocytes were washed, resuspended to 10% hematocrit in buffer [25mM HEPES (pH 7.4), 120mM NaCl, 5.4mM KCl, 1.8mM CaCl2, and 1mM NaH2PO4], incubated for 1 hour at 37°C, then centrifuged at 2000xg for 5 minutes at 4°C, resuspended in fresh wash buffer to 30-40% hematocrit, and split into 210µL aliquots of packed erythrocytes. […] All samples were incubated at 37°C shaking at 500 RPM. Triplicate samples of supernatants and packed erythrocytes were collected at 0, 0.5, 1, and 6-hour intervals and snap-frozen in liquid N2.
RBC and media samples were extracted at 1:10 and 1:20 dilutions, respectively, in 5:3:2 MeOH : MeCN:H2O v/v/v, and supernatants analyzed on a Thermo Vanquish UHPLC coupled to a Thermo Q Exactive mass spectrometer, as extensively described ([Nemkov et al., 2015]; [Nemkov et al., 2017]). The extraction buffer was supplemented with 40uM 3-^13C lactate to allow absolute quantification of lactate isotopologues, including lactate generated via glycolysis ([1,2,3-^13C3] enriched) vs. the pentose phosphate pathway ([2,3-^13C2] enriched), as described ([Reisz et al., 2016]). Metabolite assignments, peak area integration and isotopologues distributions were determined using Maven (Princeton University) ([Nemkov et al., 2015]; [Nemkov et al., 2017]).
Data were auto-scaled and normalized to zero-hour time points. Metabolites were removed from the dataset if greater than 50% of the samples contained missing values or the relative standard deviation among replicates exceeded 25%. Additionally, data was filtered using the interquartile range to reduce near-constant values from the experiment by 5%.
A principal component analysis of preprocessed data was plotted with the 95% confidence interval minimum volume enclosing ellipsoid for each respective group (MetaboAnalyst, cluster, plotly). A two-way repeated measures analysis of variance (ANOVA) was performed with multiple comparisons corrected for using a false discovery rate p-value cutoff of 0.05. Metabolite-Pathway analysis was performed using the R package of MetaboAnalyst, as previously described ([Xia and Wishart, 2010]). Metabolite-Protein nodal analysis was performed using omicsnet.ca and as previously described ([Zhou and Xia, 2018]).

[1] = treated erythrocytes, one value per replicate sample, polarity +
[2] = treated erythrocytes, one value per replicate sample, polarity -
[3] = treated erythrocytes, replicate samples

## CC(C)(C)C(=O)OCOP(=O)(OCOC(=O)C(C)(C)C)C1CC(O)N(O)C1=O (stereo not shown) [POMSF]
Replicate samples
  AMP level (metabolomics signal): 2.22E+06 and 1.69E+06 and 1.24E+06
  ATP level (metabolomics signal): 6.37E+03 and 8.43E+03 and 5.73E+03
  Adenine level (metabolomics signal): 1.92E+05 and 1.77E+05 and 1.67E+05
  Cytosine level (metabolomics signal): 5.62E+05 and 5.81E+05 and 5.75E+05
  L-alanine level (metabolomics signal): 8.49E+06 and 9.99E+06 and 1.01E+07
  L-arginine level (metabolomics signal): 8.18E+06 and 5.94E+06 and 8.91E+06
  L-asparagine level (metabolomics signal): 3.70E+06 and 4.01E+06 and 4.49E+06
  L-aspartate level (metabolomics signal): 3.38E+07 and 3.70E+07 and 4.18E+07
  L-cysteine level (metabolomics signal): 5.61E+05 and 2.55E+05 and 1.58E+05
  L-glutamate level (metabolomics signal): 3.26E+07 and 3.43E+07 and 3.68E+07
  L-glutamine level (metabolomics signal): 3.77E+07 and 4.04E+07 and 5.11E+07
  L-histidine level (metabolomics signal): 1.39E+06 and 1.38E+06 and 1.35E+06
  L-isoleucine level (metabolomics signal): 1.79E+07 and 1.67E+07 and 1.69E+07
  L-leucine level (metabolomics signal): 1.70E+08 and 1.83E+08 and 2.03E+08
  L-lysine level (metabolomics signal): 2.70E+06 and 2.39E+06 and 2.59E+06
  L-methionine level (metabolomics signal): 1.52E+07 and 1.66E+07 and 1.85E+07
  L-phenylalanine level (metabolomics signal): 8.08E+06 and 8.86E+06 and 1.12E+07
  L-proline level (metabolomics signal): 4.22E+07 and 3.45E+07 and 3.96E+07
  L-serine level (metabolomics signal): 2.93E+06 and 2.66E+06 and 3.79E+06
  L-threonine level (metabolomics signal): 5.71E+06 and 5.05E+06 and 5.98E+06
  L-tryptophan level (metabolomics signal): 5.93E+06 and 3.78E+06 and 4.71E+06
  L-tyrosine level (metabolomics signal): 1.94E+07 and 2.09E+07 and 2.16E+07
  L-valine level (metabolomics signal): 1.34E+08 and 1.45E+08 and 1.42E+08
  dCMP level (metabolomics signal): 1.87E+04 and 1.84E+04 and 1.76E+04
  dTMP level (metabolomics signal): 1.29E+06 and 8.42E+05 and 1.18E+06
  glycine level (metabolomics signal): 1.56E+06 and 1.61E+06 and 1.75E+06
[1]
  N-Acyl-D-aspartate (C06380) metabolite signal: 2.47E+05 and 3.01E+05 and 2.50E+05
  Poly-gamma-D-glutamate (C05723) metabolite signal: 2.49E+07 and 2.77E+07 and 3.43E+07
[2]
  D-Ribitol 5-phosphate (C01068) metabolite signal: 1.89E+04 and 2.70E+04 and 1.78E+04
  D-glucono-1,5-lactone (C00198) metabolite signal: 5.20E+05 and 6.45E+05 and 5.70E+05
  L-Noradrenaline (C00547) metabolite signal: 5.30E+04 and 6.26E+04 and 5.84E+04
  Oxalosuccinate (C05379) metabolite signal: 1.60E+05 and 1.51E+05 and 1.30E+05
  Pyridoxamine (C00534) metabolite signal: 4.35E+04 and 3.15E+04 and 3.96E+04
  Thioredoxin disulfide (C00343) metabolite signal: 4.45E+04 and 2.53E+04 and 3.52E+04
[3]
  1-4-beta-D-Xylan (metabolite signal): 2.42E+05 and 2.55E+05 and 2.51E+05
  2-Hydroxyglutarate/Citramalate (C02630) metabolite signal: 8.78E+04 and 9.72E+04 and 1.18E+05
  5-6-Dihydrothymine (C00906) metabolite signal: 3.10E+05 and 2.80E+05 and 2.87E+05
  5-10-Methenyltetrahydrofolate (metabolite signal): 3.54E+05 and 4.17E+05 and 3.24E+05
  5-Hydroxyisourate (C11821) metabolite signal: 5.17E+06 and 5.16E+06 and 5.68E+06
  5-L-Glutamyl-taurine (metabolite signal): 1.45E+05 and 1.54E+05 and 1.36E+05
  5-Oxoproline (metabolite signal): 8.54E+05 and 9.65E+05 and 9.67E+05
  (S)(+)-Allantoin (C02350) metabolite signal: 4.35E+04 and 3.58E+04 and 0.00E+00
  Allantoate (C00499) metabolite signal: 2.71E+05 and 2.04E+05 and 2.56E+05
  Ascorbate (metabolite signal): 9.30E+04 and 6.85E+04 and 1.08E+05
  CMP-N-acetylneuraminate (metabolite signal): 1.38E+04 and 2.26E+04 and 3.45E+04
  Carnosine (metabolite signal): 2.64E+05 and 2.93E+05 and 2.91E+05
  Citrate (C00158) metabolite signal: 2.63E+04 and 3.23E+04 and 3.56E+04
  Creatine (metabolite signal): 2.99E+08 and 3.28E+08 and 3.02E+08
  Creatinine (metabolite signal): 3.46E+06 and 3.25E+06 and 2.95E+06
  Cys-Gly (metabolite signal): 2.55E+06 and 2.28E+06 and 2.13E+06
  D-Glucosamine (metabolite signal): 1.73E+05 and 2.02E+05 and 1.88E+05
  D-Glucose (C00031) metabolite signal: 6.07E+06 and 5.64E+06 and 6.25E+06
  D-Ribose (C00121) metabolite signal: 1.75E+05 and 2.10E+05 and 1.84E+05
  Dehydroascorbate (metabolite signal): 1.78E+04 and 9.28E+03 and 1.77E+04
  Dihydrofolate (metabolite signal): 1.24E+06 and 6.72E+05 and 1.27E+06
  Dimethylglycine (metabolite signal): 1.14E+06 and 1.17E+06 and 1.06E+06
  Diphosphate (C00013) metabolite signal: 3.26E+03 and 1.34E+03 and 1.52E+03
  Fumarate (C00122) metabolite signal: 1.08E+05 and 1.33E+05 and 1.27E+05
  Glutathione (C00051) metabolite signal: 1.64E+08 and 1.52E+08 and 1.45E+08
  Glutathione disulfide (metabolite signal): 1.36E+05 and 2.52E+05 and 3.91E+05
  Hypoxanthine (C00262) metabolite signal: 6.53E+04 and 4.36E+04 and 3.66E+04
  IMP (C00130) metabolite signal: 9.13E+04 and 0.00E+00 and 4.11E+04
  Inosine (C00294) metabolite signal: 9.07E+04 and 1.09E+05 and 1.15E+05
  L-Citrulline (metabolite signal): 3.18E+06 and 3.52E+06 and 3.48E+06
  L-Homoserine (metabolite signal): 2.14E+05 and 2.01E+05 and 2.23E+05
  Lactate (C01432) metabolite signal: 9.04E+06 and 8.73E+06 and 8.57E+06
  Malate (C00149) metabolite signal: 1.84E+05 and 2.15E+05 and 2.30E+05
  Mannitol (C00392) metabolite signal: 1.48E+05 and 1.43E+05 and 1.44E+05
  N-Acetylneuraminate (metabolite signal): 2.84E+04 and 2.76E+04 and 2.63E+04
  N-Glycoloyl-neuraminate (metabolite signal): 1.80E+05 and 1.43E+05 and 1.72E+05
  NAD+ (C00003) metabolite signal: 7.76E+04 and 1.99E+05 and 4.14E+05
  Nicotinamide (C00153) metabolite signal: 3.69E+07 and 3.94E+07 and 3.72E+07
  Ornithine (metabolite signal): 2.34E+06 (2×) and 2.32E+06
  Oxaloacetate (C00036) metabolite signal: 4.10E+04 and 3.82E+04 and 3.53E+04
  Phosphoserine (metabolite signal): 5.43E+04 and 2.60E+05 and 7.13E+04
  Putrescine (metabolite signal): 8.30E+04 and 7.12E+04 and 6.80E+04
  Pyridoxal (C00250) metabolite signal: 7.95E+04 and 8.76E+04 and 8.42E+04
  Pyruvate (C00022) metabolite signal: 6.67E+05 and 7.32E+05 and 6.75E+05
  S-Glutathionyl-L-cysteine (metabolite signal): 6.44E+04 and 8.58E+04 and 2.21E+05
  Sedoheptulose 1-phosphate (C06222) metabolite signal: 1.56E+04 and 1.68E+04 and 1.80E+04
  Spermidine (metabolite signal): 9.65E+06 and 9.19E+06 and 9.18E+06
  Spermine (metabolite signal): 9.74E+06 and 8.90E+06 and 1.00E+07
  Succinate (C00042) metabolite signal: 9.57E+04 and 9.51E+04 and 9.45E+04
  Thymidine (C00214) metabolite signal: 1.34E+04 and 1.17E+04 and 1.87E+04
  UDP (C00015) metabolite signal: 2.09E+05 and 1.18E+05 and 1.38E+05
  UDP-N-acetyl-D-glucosamine (metabolite signal): 1.55E+04 and 2.01E+04 and 2.26E+04
  UDP-glucose (C00029) metabolite signal: 3.09E+04 and 3.55E+04 and 4.15E+04
  Urate (C00366) metabolite signal: 3.51E+04 and 2.72E+04 and 2.68E+04
  Xanthine (C00385) metabolite signal: 3.66E+05 and 3.57E+05 and 3.29E+05
  alpha-D-Glucosamine 1-phosphate (metabolite signal): 2.09E+06 and 2.40E+06 and 2.18E+06
  alpha-D-Ribose 1-phosphate (C00620) metabolite signal: 1.08E+05 and 8.84E+04 and 1.07E+05
  gamma-Glutamyl-gamma-aminobutyrate (metabolite signal): 9.93E+04 and 1.32E+05 and 1.00E+05
  gamma-L-Glutamyl-D-alanine (metabolite signal): 3.99E+04 and 3.09E+04 and 3.31E+04
  gamma-L-Glutamyl-L-cysteine (metabolite signal): 1.39E+04 and 2.39E+04 and 2.36E+04
